Results published in patent US20190316085A1, “Methods Of T-Lymphocyte Expansion” (Cambridge Enterprise Limited, priority 2015, published 2019).

What was measured:
CD8^+ T-lymphocytes [1] = assay: Flow cytometric characterisation of phenotypic markers; type: cell-based, mouse; conditions: 7 days
From the text: Gated on live CD8^+ cells. Each dot represents an individual mouse.
Associated statistics are shown and each pair of dots represents an individual mouse. Gated on live, CD8^+GFP^+ cells.
Cells were stained and acquired on a Fortessa (BD Biosciences). The following fluorophores and fluorophore-conjugated antibodies were used: anti-CD62L (Biolegend, MEL-14), anti-CD44 (Biolegend, IM7), anti-CD8a (Biolegend, 53-6.7), anti-CD45.1 (Biolegend, A20), anti-CD45.2 (Biolegend, 104), anti-CD127 (Biolegend, A7R34), anti-KLRG1 (Biolegend, 2F1/KLRG1), anti-CD19 (Biolegend, 6D5), anti-Bcl-2 (Biolegend, BCL/10C4), Eomes (eBioscience, Danlimag), PD-1 (Biolegend, 29F.1A12), […], H-2Kb/SIINFEKL Pentamer-PE (Proimmune, F093-2A), CFSE (Life Technologies), LIVE/DEAD Violet (Life Technologies), PI-AnnexinV (Biolegend, 640928), anti-Bcl-xl-PE (Cell Signalling Technologies, 54H6). For staining of nuclear-located marker Eomes, the Transcription Factor Staining Buffer Set (eBioscience) was used, according to the manufacturer's instructions. For staining of intracellular cytokines, OT-I cells were re-stimulated with SIINFEKL peptide for 4 h with GolgiStop solution (BD). For ^1H-NMR experiments, CD8^+ T-lymphocytes were sorted from total splenocytes by immunostaining with anti-mouse CD8-AF647 (Biolegend) on a MoFlo (Beckman Coulter). Cells were then activated and cultured as described above. For staining of human T cells, CD8^+ T cells were incubated at 37 C for 30 minutes in the presence of anti-CCR7 antibody (eBioscience 12-1979-41), followed by staining with anti-CD45RO antibody (Biolegend, UCHL1).

OT-I CD8^+ T-lymphocytes [2] = assay: Homeostatic proliferation after co-transfer into sub-lethally irradiated hosts; type: in vivo, mouse
Procedure: CD45.1.1 or CD45.1.2 OT-I CD8^+ T-lymphocytes were activated with 1000 nM SIINFEKL peptide and cultured with or without 300 μM S-2HG-octyl ester for 9 days. Cells from each group were mixed 1:1 and labelled with CFSE prior to transfer into sub-lethally irradiated CD45.2.2 mice. 7 days later, mice were sacrificed and the presence of CD451.1 and CD45.1.2 CD8^+ T-lymphocytes was enumerated in spleen by flow cytometry. Representative flow cytometry plots are shown for each pool before and after adoptive transfer. Flow cytometry plots show viable CD8^+ cells.
Total splenocytes from OT-I CD45.1/CD45.1 and OT-I CD45.1/CD45.2 mice were activated with 1000 nM SIINFEKL peptide in the presence of IL-2 and vehicle or 300 μM S-2HG-octyl ester. After 48 h CD8^+ T-cells were purified by negative selection and cultured for a further 7 days in the presence of IL-2 and vehicle or 300 μM S-2HG-octyl ester. Vehicle and S-2HG-treated cells were then mixed 1:1 and labelled with CFSE, followed by intravenous injection into sub-lethally irradiated CD45.2/CD45.2 hosts. 7 days later, spleens were harvested and analysed by flow cytometry. Absolute numbers of cells were determined with the use of counting beads (CountBright, Life Technologies)

OT-I CD8^+ T-lymphocytes [3] = assay: In vivo persistence experiments; set-up: species or system mouse
Procedure: Flow cytomotery plots are gated on live cells.
Total splenocytes from OT-I CD45.1^+ mice were activated with 1000 nM SIINFEKL peptide in the presence of IL-2 and vehicle or 300 μM S-2HG-octyl ester. After 48 h CD8^+ T-cells were purified by negative selection and cultured for 7 days in the presence of IL-2 and vehicle or 300 μM S-2HG-octyl ester. 1 million CD45.1^+CD8^+ cells were then injected intravenously into C57BL/6J wild type CD45.2.2 host mice. 30 days later, host mice were sacrificed to assess the persistence of transferred cells in the spleen. Absolute numbers of cells were determined with the use of counting beads (CountBright, Life Technologies).

OT-I CD8^+ T-lymphocytes [4] = assay: Recall experiments with co-transferred cells; type: in vivo, mouse; conditions: cells pre-treated with 300 μM S-2HG-octyl ester; spleen, lymphnodes, liver, day 37 post transfer
Procedure: CD45.1.1 or CD45.1.2 OT-I CD8^+ T-lymphocytes were activated with 1000 nM SIINFEKL peptide and cultured with or without 300 μM S-2HG-octyl ester for 9 days. Cells from each group were mixed 1:1 prior to transfer into CD45.2.2 mice. 30 days later, these recipient mice were vaccinated with SIINFEKL-loaded dendritic cells to induce recall and the presence of CD451.1 and CD45.1.2 CD8^+ T-lymphocytes was enumerated in spleen, lymphnodes and liver by flow cytometry 7 days later.

EG7-OVA tumours = assay: Adoptive cellular immunotherapy experiments; type: in vivo, mouse; conditions: i.v.
Procedure: Mice were lymphodepleted with sub-lethal irradiation before receivening intravenous injection of OT-I CD8^+ T-lymphocytes. Error bars denote s.e.m. *p<0.05, ns=non-significant.
Error bars denote s.e.m. *p<0.05, ns=non-significant.
For adoptive cell therapy experiments, OT-I CD8^+ T-lymphocytes were activated with 1000 nM SIINFEKL peptide in the presence of IL-2 and vehicle or 300 μM S-2HG-octyl ester. After 48 h CD8^+ T-cells were purified by negative selection and cultured for a further 7 days in the presence of IL-2 and vehicle or 300 μM S-2HG-octyl ester. OT-I cells were transferred intravenously into tumour-bearing C57BL/6J lymphodepleted or lymphoreplete mice with 9-12 day established EG7-OVA tumours.

CD8^+ T-lymphocytes [5] = assay: qRT-PCR of differentiation, memory and pluripotency associated genes; type: cell-based, mouse; conditions: 0.5 mM, 1 day or 7 days, with IL2
Procedure: FIGS. 8E, 8F and 8G show expression of II2(8E), Ifng (8F), and Eomes (8G) mRNA in CD8^+ T-lymphocytes activated for 48 h with αCD3+αCD28 antibodies and then expanded for a further 2 days in the presence of IL-2. Cells were then treated for either 24 h or 7 days with or without 0.5 mM S-2HG-octyl ester or R-2HG-octyl ester. n≥4 mice per group.
Activated CD8^+ T-lymphocytes were treated with 0.5 mM of either S-2HG-octyl ester or R-2HG-octyl ester for 1 day or 7 days in the presence of IL2. The induction seen with R-2HG-octyl ester is weaker than with S-2HG-octyl ester. Each dot represents an individual donor mouse, n=4 mice. error bars denote the s.d.
RNA was isolated using the RNeasy kit (Qiagen). 1 μg of RNA was used for cDNA synthesis with the First-Strand Synthesis kit (Invitrogen). All samples were run in technical triplicates using a StepOnePlus system (Applied Biosystems) with SYBR green.

CD8^+ T-lymphocytes [6] = assay: Flow cytometry of CD44 and CD62L surface expression; type: cell-based, mouse; conditions: 0.5 mM, with IL-2; antigen specific (OT-I) and polyclonal CD8+ T-lymphocytes
From the text: Data are representative of n=4 individual mice.
Data are representative of 3 mice per genotype.
Data are representative of 2 mice per genotype.
Data are representative of n=3 individual mice.
Cells were stained and acquired on a Fortessa (BD Biosciences). […] For staining of nuclear-located marker Eomes, the Transcription Factor Staining Buffer Set (eBioscience) was used, according to the manufacturer's instructions. For staining of intracellular cytokines, OT-I cells were re-stimulated with […] peptide for 4 h with GolgiStop solution (BD). For ^1H-NMR experiments, CD8^+ T-lymphocytes were sorted from total splenocytes by immunostaining with anti-mouse CD8-AF647 (Biolegend) on a MoFlo (Beckman Coulter). Cells were then activated and cultured as described above.

[7] = system: OT-I CD8^+CD45.1^+ T-lymphocytes; assay: In vivo memory recall experiment (adoptive transfer, vaccination); set-up: species or system mouse; conditions: 0.5 mM, 7 days with IL-2 (FIGS. 13, 16, 17)
Procedure: FIGS. 13B and 13C show representative flow cytometry plots of (B) CD8^+CD45.1^+ (C) or Kb/SIINFEKL Pentamer^+CD45.1^+ T-lymphocytes, in the spleens of vaccinated litter mate CD45.2 mice, 37 days after adoptive transfer of SIINFEKL-activated OT-I CD8^+CD45.1^+ T-lymphocytes, expanded with 0.5 mM S-2HG-octyl ester, 0.5 mM R-2HG-octyl ester or vehicle in the presence of IL-2 for 7 days. FIGS. 13D-F show (13D) the number of recovered CD45.1^+CD8^+ T-lymphocytes per spleen and (13E) % CD45.1^+ cells of the total CD8^+ population in each spleen or (13F) number of recovered Kb/SIINFEKL Pentamer^+CD45.1^+ T-lymphocytes per spleen 7 days after vaccination (37 days after the CD8+ T-cells were transferred into the mice). n=6 mice per group and error bars denote the s.e.m.
Total splenocytes from OT-1 CD45.1^+ mice were activated with 1000 nM SIINFEKL peptide in the presence of IL-2 and vehicle, 0.5 mM S-2HG-octyl ester or 0.5 mM R-2HG-octyl ester for 7 days. 1 million CD45^+CD8^+ cells were then injected intravenously into C57/B6 wild type CD45.2^+ host mice. 30 days later, host mice were vaccinated i.p. with SIINFEKL-loaded dendritic cells. 7 days later, spleens were harvested from host mice and the presence of CD45.1^+CD8^+ and Kb/SIINFEKL Pentamer+cells was determined by flow cytometry. Absolute numbers of cells were determined with the use of counting beads (CountBright, Life Technologies). Dendritic cells were prepared from bone marrow extracted from wild type C57/B6 mice. Bone marrow derived cells were cultured in non-TC treated petri dishes in RPMI-1640 medium containing 2 mM glutamine, 10% FBS, 25 mM HEPES, pH 7.2, 1% penicillin-streptomycin, 55 μM […] supplemented 20 ng/ml mGM-CSF (R&D Systems). After 8 days of culture, dendritic cells were activated with 1 μg/ml LPS (Sigma) for 24 h. The maturation of dendritic cells was confirmed by flow cytometry using the following markers: MHC class II-APC, CD11b-AF488, CD11c-AF488 and CD86-PE/Cy7 (Biolegend). Mature dendritic cells were then loaded with 2 μM SIINFEKL peptide at 37° C. for 1 hour. After peptide loading, dendritic cells were detached with 3 mM EDTA in PBS for 5-10 min at 37° C. and washed with PBS. For vaccination, 1 million peptide-loaded dendritic cells were injected i.p. per mouse in 100 μl PBS.

[8] = 500 μM S-2HG-octyl ester, HIF-1α-independent

| SMILES | proportion of KLRG1^High cells (CD8^+ T-lymphocytes [1]; 300 μM S-2HG-octyl ester, 21% oxygen, empty or L2hgdh-FLAG vector) | PD-1 expression (CD8^+ T-lymphocytes [1]; 500 μM S-2HG-octyl ester) | 41BB expression (CD8^+ T-lymphocytes [1]; [8]) | CD44 expression (CD8^+ T-lymphocytes [1]; [8]) | CD127 expression (CD8^+ T-lymphocytes [1]; [8]) | Eomes expression (flow cytometry) (CD8^+ T-lymphocytes [1]; [8]) | homeostatic proliferation of transferred cells (OT-I CD8^+ T-lymphocytes [2]; cells pre-treated with 300 μM S-2HG-octyl ester 9 days, 7 days after transfer, spleen) | transferred cells dividing >5 times in vivo (OT-I CD8^+ T-lymphocytes [2]; cells pre-treated with 300 μM S-2HG-octyl ester, CFSE, day 7) | persistence of adoptively transferred cells (OT-I CD8^+ T-lymphocytes [3]; cells pre-treated with 300 μM S-2HG-octyl ester, spleen, 30 days after transfer) | Bcl-2 level of recovered cells relative to naïve cells (OT-I CD8^+ T-lymphocytes [3]; day 30 after transfer) | CD44 level of recovered cells relative to naïve cells (OT-I CD8^+ T-lymphocytes [3]; day 30 after transfer) | CD127 level of recovered cells relative to naïve cells (OT-I CD8^+ T-lymphocytes [3]; day 30 after transfer) | recall response to vaccination with SIINFEKL-loaded dendritic cells (OT-I CD8^+ T-lymphocytes [4]) | control of tumour growth in lymphodepleted tumour-bearing mice (EG7-OVA tumours; 0.7×10^6 OT-I cells cultured with S-2HG-octyl ester, 12 day tumours) | control of tumour growth in lymphoreplete tumour-bearing mice (EG7-OVA tumours; 1.0×10^6 OT-I cells cultured with S-2HG-octyl ester, 9 day tumours) | expression of pluripotency associated genes (Oct3/4, Sox2, Nanog, Klf4) (CD8^+ T-lymphocytes [5]) | formation of a CD62L^high CD44^high population (CD8^+ T-lymphocytes [6]) | formation of memory cells after in vitro treatment of CD8+ T-cells [7] | formation of memory cells after in vitro treatment of CD8+ T-cells ([7]; listed as alpha ketoglutarate) |
| --- | --- | --- | --- | --- | --- | --- | --- | --- | --- | --- | --- | --- | --- | --- | --- | --- | --- | --- | --- |
| O=C(O)CC[C@H](O)C(=O)O [S-2HG, S-2-hydroxyglutarate] | decreased | less | more | more | more | more | greater homeostatic proliferation | more cells dividing >5 times | dramatically enhanced persistence | elevated | elevated | elevated | superior recall response | more proficient at controlling tumour growth | more proficient at controlling tumour growth | induces the expression | – | – | – |
| COC(=O)CCC(=O)OC [dimethylsuccinate] | – | – | – | – | – | – | – | – | – | – | – | – | – | – | – | – | induce the formation | induces the formation | – |
| CCCCCCCCOC(=O)C(=O)CCC(=O)O [α-ketoglutarate octyl ester, reference compound] | – | – | – | – | – | – | – | – | – | – | – | – | – | – | – | – | not observed | does not induce the formation | does not provide good activity |
